The values that follow come from US6887864B2, “Azepane derivatives” (Hoffmann-La Roche Inc., priority 2002, dated 2005).

Data set [1] is described as follows: mouse plasma stability test. As to conditions: 10 μmol/1, 37° C. Type of data set: in vitro ADME. Here is the method: After defined periods of time with respect to the addition of said compounds to the mouse-plasma (t=0, 0.5, 1, 2, 4 h ), equal portions were isolated from the plasma, separated with HPLC and analyzed by mass spectrometry. During all these steps, the temperature was kept constant at 37° C. In the following table, the plasma stability of compounds according to the invention was compared to one of the selected compounds from EP 0 663 393 A1.

In data set [2] the target is T1, AKT (Homo sapiens, UniProt P31749). As to the kind of experiment: ELISA-based AKT kinase assay. Type of data set: biochemical. Also on record: made in house; host or cells: Sf9 insect cells. As to conditions: AKT expressed in Sf9 cells, substrate peptide 300 nM, ATP 5 μM, 30 min at room temperature. An excerpt:
In order to study AKT inhibitory activity of the compounds according to the invention, an ELISA-based assay was developed for AKT. The assay design utilized a N-terminally biotinylated substrate peptide. When this substrate was phosphorylated by the AKT kinase, the product was recognized by a substrate/sequence-specific antibody known to bind to particular phosphorylated serine residues. For this assay, a Biotin-[…] peptide and anti-phospho-GSK-3α Ser21 antibody (rabbit) from Cell Signaling Technology/New England Biolabs were used.
The enzymatic reactions were carried out with AKT expressed in Sf9 cells (100 ng/reaction), substrate peptide (300 nM) and ATP (5 μM) in the absence or presence of different concentrations of compounds dissolved in DMSO. The final concentration of DMSO was 1%. The mixtures were reacted for 30 min at room temperature in assay buffer containing 50 mM Tris-HCl, 10 mM MgCl2, 1.0 mM DTT, 2 mM Na3VO4, pH 7.5, in a final volume of 40 μl. The reaction was stopped with addition of 10 μl 0,12 M EDTA/0,12 M EGTA. The reaction mixture was transferred to a SA-coated micro-titer-plate. After 1 h incubation, the plate was washed with PBS using a 384-well Embla plate washer. Anti-phospho-GSK-3α Ser21 antibody was added. After 1 h incubation the plate was washed with PBS and bound antibody was detected by addition of polyclonal<Rabbit>S-IgG-POD-conjugate from Roche Diagnostics GmbH. After 1 h incubation, the plate was washed with PBS. Amount of phosphorylated peptide was measured by an enzyme-catalyzed color reaction (ABTS conversion) and photometrical measurement at 405 nm.
Calculation of IC50 values were performed with ActivityBase.
Background: An ELISA detects its analyte on a solid surface through an enzyme-linked reagent.

Data set [3] deals with T1, AKT. The experiment in a line: cellular AKT activity assay (GSK-3 Ser21/Ser9 phosphorylation in LNCaP cells, immunoblot). Also on record: endogenous in cells; host or cells: LNCaP prostate cancer cells. Type of data set: cell-based. As to conditions: 1 h treatment, inhibitors 6 μM to 187 nM, read-out: values found for effect on AKT activity in living cells (level of GSK-3-Ser21/Ser9 phosphorylation). From the text: Additionally to Example 3 the acticity of compounds according to the invention was studied on a cellular AKT activity assay as follows:
Prostate cancer cell line LNCaP was passaged in RPMI 1640 with 10% fetal calf serum, 50 units/ml penicillin, and 50 units/ml streptomycin. LNCaP cells were characterized by a constitutive activation of AKT. Constitutive active AKT phosphorylates glycogen synthase kinase-3 (GSK-3) at Ser21/Ser9 in LNCaP cells. To measure the effect of compounds on the activity of AKT in living cells, LNCaP cells were treated with various concentrations of inhibitors (6 μM to 187 nM). After 1 h, the cells were harvested in lysis solution containing 50 mM HEPES (pH 7.0), 150 mM NaCl, 1.5 mM MgCl2 ,1 mM EGTA, 100 mM NaF, 10 mM sodium PPi, 10% glycerol, 1% Triton X-100, 1 mM Na3 […], […], 5 mM iodoacetic acid, and […]. The proteins from whole cell extracts were electrophoresed on 7.5% SDS/PAGE gels. Afterwards, proteins were transferred onto Nitrocellulose filter and immunoblotting using the enhanced chemiluminescence (ECL) detection system (Amersham Pharmacia) was performed. The level of GSK-3-Ser21/Ser9 phosphorylation was thereby determined using polyclonal anti-P-GSK-3-Ser-21/9 antibody (rabbit; New England Biolabs).
(In general: Immunoblotting shows a protein as a band on a membrane.)

pIC50: −log10 of the molar value.

T1 sequence (P31749 whole entry): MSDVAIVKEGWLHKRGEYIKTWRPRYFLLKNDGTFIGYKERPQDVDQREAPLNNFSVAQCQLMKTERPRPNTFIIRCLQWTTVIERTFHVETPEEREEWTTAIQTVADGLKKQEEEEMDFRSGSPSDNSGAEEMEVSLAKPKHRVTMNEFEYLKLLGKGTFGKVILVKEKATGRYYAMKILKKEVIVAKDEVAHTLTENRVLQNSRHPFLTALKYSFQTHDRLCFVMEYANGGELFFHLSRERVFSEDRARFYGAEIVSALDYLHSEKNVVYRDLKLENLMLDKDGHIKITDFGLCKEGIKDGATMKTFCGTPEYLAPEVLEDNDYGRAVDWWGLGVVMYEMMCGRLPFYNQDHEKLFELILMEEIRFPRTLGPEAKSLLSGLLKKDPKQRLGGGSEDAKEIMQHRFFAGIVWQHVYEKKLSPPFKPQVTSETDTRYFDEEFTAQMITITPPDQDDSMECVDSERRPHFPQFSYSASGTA

One may read the melting point as the temperature, or range, at which the solid turns liquid. For `Cl.O=C(N[C@@H]1CCCNC[C@H]1NC(=O)c1ccncc1)c1ccc(C(=O)c2c(O)ccc3c2OCCO3)cc1`, the melting point was 230 to 240 °C.

`Cc1ccc(O)c(C(=O)c2ccc(C(=O)N[C@@H]3CCCNC[C@H]3NC(=O)c3ccncc3)cc2)c1F.Cl` [Example 2-1, N-{(3R,4R)-4-[4-(2-Fluoro-6-hydroxy-3-methyl-benzoyl)-benzoylamino]-azepan-3-yl}-isonicotinamide hydrochloride] displayed a melting point of 181 to 184 °C. Moreover, the “Decrease [%] (after 4 h)” value in data set [1] is 21.9%. Also, the pIC50 at AKT [2] was 8.15. In addition, the pIC50 at AKT [3] is 5.52.

Regarding `Cl.O=C(N[C@@H]1CCCNC[C@H]1NC(=O)c1ccncc1)c1ccc(C(=O)c2c(O)ccc3ncccc23)cc1`, the melting point fell in the range of 215 to 220 °C.

Consider `Cl.O=C(N[C@@H]1CCCNC[C@H]1NC(=O)c1ccncc1)c1ccc(C(=O)c2cc(C3CCCCN3)ccc2O)cc1` (stereo partly drawn), for which the melting point is 195 to 210 °C.

In the case of `Cl.O=C(N[C@@H]1CCCNC[C@H]1NC(=O)c1ccncc1)c1ccc(C(=O)c2c(O)cc3cccnc3c2F)cc1`, the melting point lay within 247 to 251 °C.

In the case of `Cc1ccc(O)c(C(=O)c2ccc(C(=O)N[C@@H]3CCCNC[C@H]3NC(=O)c3ccncc3)cc2)c1.Cl` [Example 2-6, N-{(3R,4R)-4-[4-(2-Hydroxy-5-methyl-benzoyl)-benzoylamino]-azepan-3-yl}-isonicotinamide hydrochloride], the melting point fell in the range of 215 to 219 °C. Besides, the pIC50 on AKT [2] was 7.80. The pIC50 at AKT [3] was 6.00.

For `COc1ccc(O)c(C(=O)c2ccc(C(=O)N[C@@H]3CCCNC[C@H]3NC(=O)c3ccncc3)cc2)c1.Cl` [Example 2-5, N-{(3R,4R)-4-[4-(2-Hydroxy-5-methoxy-benzoyl)-benzoylamino]-azepan-3-yl}-isonicotinamide hydrochloride], the melting point is 230 to 240 °C. On AKT [2], this compound showed a pIC50 of 7.82. At AKT [3], the pIC50 is 5.70.

Regarding `CC(C)(C)c1ccc2cc(O)c(C(=O)c3ccc(C(=O)N[C@@H]4CCCNC[C@H]4NC(=O)c4ccncc4)cc3)c(F)c2n1.Cl`, the melting point stood at 215 °C.

Consider `COc1ccc(O)c(C(=O)c2ccc(C(=O)N[C@@H]3CCCNC[C@H]3NC(=O)c3ccc(O)cc3)cc2)c1F.Cl`, for which the melting point is 190 to 196 °C.

For the compound `COc1ccc(O)c(C(=O)c2ccc(C(=O)N[C@@H]3CCCNC[C@H]3NC(=O)c3ccncn3)cc2)c1F.Cl`, the melting point lay in the range of 256 to 265 °C.

Turning to `Cc1cccc(C(=O)c2ccc(C(=O)N[C@@H]3CCCNC[C@H]3NC(=O)c3ccncc3)cc2)c1.Cl`, the melting point lay within 190 to 196 °C.

In the case of `CC1(C)CCCNC1c1ccc(O)c(C(=O)c2ccc(C(=O)N[C@@H]3CCCNC[C@H]3NC(=O)c3ccncc3)cc2)c1F.Cl` (stereo partly drawn), the melting point came out at 265 °C.

`CC(C)Oc1ccc(O)c(C(=O)c2ccc(C(=O)N[C@@H]3CCCNC[C@H]3NC(=O)c3ccncc3)cc2)c1.Cl` showed a melting point of 243 to 249 °C.

The compound `COc1ccc(O)c(C(=O)c2ccc(C(=O)N[C@@H]3CCCNC[C@H]3NC(=O)c3ccncc3)cc2)c1F.Cl` [Example 1a, N-{(3R, 4R)-4-[4-(2-Fluoro-6-hydroxy-3-methoxy-benzoyl)-benzoylamino]-azepan-3-yl}-isonicotinamide hydrochloride] showed a melting point of 200 to 222 °C. Also, the “Decrease [%] (after 4 h)” value in data set [1] is given as 6.2%.

For the compound `Cc1ccc2cc(O)c(C(=O)c3ccc(C(=O)N[C@@H]4CCCNC[C@H]4NC(=O)c4ccncc4)cc3)c(F)c2n1.Cl`, the melting point fell in the range of 255 to 260 °C.

Turning to `Cc1cc(C(=O)N[C@@H]2CNCCC[C@H]2NC(=O)c2ccc(C(=O)c3cc(N(C)C)ccc3O)cc2)cc(C)c1O.Cl`, the melting point lay within 217 to 219 °C.

The compound `Cl.O=C(N[C@@H]1CCCNC[C@H]1NC(=O)c1ccncc1)c1ccc(C(=O)c2cc(O)ccc2O)cc1` showed a melting point of 108 to 114 °C.

The compound `CC1(C)CCN(c2ccc(O)c(C(=O)c3ccc(C(=O)N[C@@H]4CCCNC[C@H]4NC(=O)c4ccncc4)cc3)c2)CC1.Cl` displayed a melting point of 229 to 234 °C.

Turning to `Cl.NCc1ccc(O)c(C(=O)c2ccc(C(=O)N[C@@H]3CCCNC[C@H]3NC(=O)c3ccncc3)cc2)c1`, the melting point lay in the range of 215 to 218 °C.

The compound `Cl.O=C(N[C@@H]1CCCNC[C@H]1NC(=O)c1ccncc1)c1ccc(C(=O)c2cc(N3CCCCC3)ccc2O)cc1` displayed a melting point of 218 to 224 °C.

Take `COc1ccc(O)c(C(=O)c2ccc(C(=O)N[C@@H]3CCCNC[C@H]3NC(=O)c3ccnc(N)c3)cc2)c1F.Cl`: the melting point was in the range of 223 to 241 °C.

In the case of `CSc1ccc(O)c(C(=O)c2ccc(C(=O)N[C@@H]3CCCNC[C@H]3NC(=O)c3ccncc3)cc2)c1.Cl` [Example 2-2, N-{(3R,4R)-4-[4-(6-Hydroxy-3-methylsulfanyl-benzoyl)-benzoylamino]-azepan-3-yl}-isonicotinamide hydrochloride], the melting point fell in the range of 183 to 185 °C. Moreover, the “Decrease [%] (after 4 h)” value in data set [1] is listed as 26.9%. The compound further had a pIC50 on AKT [2] of 7.96. Also, on AKT [3], the pIC50 is 5.82.

Regarding `COc1ccc(O)c(C(=O)c2ccc(C(=O)N[C@@H]3CCCNC[C@H]3NC(=O)c3cc(C)c(O)c(C)c3)cc2)c1F.Cl`, the melting point fell in the range of 180 to 183 °C.

The compound `Cc1cc(C(=O)c2ccc(C(=O)N[C@@H]3CCCNC[C@H]3NC(=O)c3ccncc3)cc2)c(O)cn1.Cl` displayed a melting point of 203 to 208 °C.

In turn, `CN(C)c1ccc(O)c(C(=O)c2ccc(C(=O)N[C@@H]3CCCNC[C@H]3NC(=O)c3ccc(O)cc3)cc2)c1.Cl` gave a melting point of 203 to 206 °C.

In turn, `CC1(C)CCCN(c2ccc(O)c(C(=O)c3ccc(C(=O)N[C@@H]4CCCNC[C@H]4NC(=O)c4ccncc4)cc3)c2)C1.Cl` gave a melting point of 194 to 198 °C.

Turning to `CN(C)c1ccc(O)c(C(=O)c2ccc(C(=O)N[C@@H]3CCCNC[C@H]3NC(=O)c3ccncc3)cc2)c1.Cl`, the melting point fell in the range of 230 to 245 °C.

On to `COc1ccc(O)c(C(=O)c2ccc(C(=O)N[C@@H]3CCCNC[C@H]3NC(=O)c3ccncc3)cc2)c1OC.Cl` [Example 2-4, N-{(3R,4R)-4-[4-(6-Hydroxy-2,3-dimethoxy-benzoyl)-benzoylamino]-azepan-3-yl}-isonicotinamide hydrochloride], for which the melting point is 185 to 193 °C. This compound showed a pIC50 against AKT [2] of 6.94. Also, the pIC50 on AKT [3] is below 4.62.

`CC(C)Nc1ccc(O)c(C(=O)c2ccc(C(=O)N[C@@H]3CCCNC[C@H]3NC(=O)c3ccncc3)cc2)c1.Cl` had a melting point of 227 to 230 °C.
